Results: patent US20230064983A1 (priority 2020, published 2023)
Like-named read-outs stand apart in the source and are kept apart here.

Tests used:
[1] = target: T1, EGFR with insertion SVD between D770 and N771 (mutEGFR D770_N771insSVD) (Homo sapiens, UniProt P00533, DUP768-770); test: Exon20-Mutant-EGFR(D770_N771insSVD) kinase assay (TR-FRET); format: biochemical; conditions: 2 mM ATP, Table 2
T1 construct: amino acids R669 to A1210; made in house; host or cells: Sf9 insect cells (baculovirus)
T1 sequence (P00533 other isoform, or with tags, fused parts or gaps DUP768-770): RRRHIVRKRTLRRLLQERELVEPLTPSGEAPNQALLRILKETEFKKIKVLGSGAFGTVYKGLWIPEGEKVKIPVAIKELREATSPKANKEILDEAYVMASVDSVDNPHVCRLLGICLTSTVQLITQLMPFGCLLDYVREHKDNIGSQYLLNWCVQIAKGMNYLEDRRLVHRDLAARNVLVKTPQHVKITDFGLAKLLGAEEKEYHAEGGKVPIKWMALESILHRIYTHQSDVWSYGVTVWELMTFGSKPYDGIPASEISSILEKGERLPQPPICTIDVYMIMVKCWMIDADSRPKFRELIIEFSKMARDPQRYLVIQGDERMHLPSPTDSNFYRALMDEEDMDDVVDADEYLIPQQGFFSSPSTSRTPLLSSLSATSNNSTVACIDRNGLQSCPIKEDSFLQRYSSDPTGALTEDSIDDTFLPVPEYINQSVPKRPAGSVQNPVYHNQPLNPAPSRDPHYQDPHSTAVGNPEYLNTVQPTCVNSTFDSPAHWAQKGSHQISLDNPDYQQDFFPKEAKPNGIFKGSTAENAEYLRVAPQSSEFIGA

[2] = target: T2, Bub1 (Homo sapiens, UniProt O43683); test: Bub1 high ATP kinase assay (TR-FRET); format: biochemical; conditions: 2 mM ATP, Table 3
T2 construct: catalytic domain of human Bub1 (amino acids 704-1085); His6 (N); made in house; host or cells: insect cells (Hi5)
T2 sequence (O43683 704-1085): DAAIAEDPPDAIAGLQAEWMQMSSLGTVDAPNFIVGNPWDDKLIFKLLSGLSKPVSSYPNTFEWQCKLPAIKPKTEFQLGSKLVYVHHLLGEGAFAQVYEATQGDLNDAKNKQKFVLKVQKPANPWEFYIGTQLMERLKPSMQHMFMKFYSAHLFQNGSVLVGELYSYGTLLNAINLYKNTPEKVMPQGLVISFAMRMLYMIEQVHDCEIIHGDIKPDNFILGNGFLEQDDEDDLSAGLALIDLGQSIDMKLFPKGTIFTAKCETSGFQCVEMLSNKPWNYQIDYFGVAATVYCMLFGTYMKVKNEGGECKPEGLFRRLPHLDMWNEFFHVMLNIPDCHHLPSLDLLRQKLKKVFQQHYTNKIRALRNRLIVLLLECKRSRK
Text: Bub1 high ATP Kinase Assay
Bub1-inhibitory activity of compounds of the present invention at a high ATP concentration was quantified employing the Bub1 TR-FRET high ATP kinase assay as described in the following paragraphs.
N-terminally His6-tagged recombinant catalytic domain of human Bub1 (amino acids 704-1085), expressed in insect cells (Hi5) and purified by Ni-NTA affinity chromatography and subsequent size exclusion chromatography, was used as enzyme. As substrate for the kinase reaction the biotinylated peptide biotin-Ahx-[…] (C-terminus in amid form) was used which can be purchased e.g. form the company Biosyntan (Berlin, Germany).
Then the kinase reaction was started by the addition of 2 μl of a solution of Bub1 in assay buffer and the resulting mixture was incubated for a reaction time of 60 min at 22° C. The concentration of Bub1 was adjusted depending of the activity of the enzyme lot and was chosen appropriate to have the assay in the linear range, a typical concentration is about 200 ng/ml. The reaction was stopped by the addition of 3 μl of a solution of TR-FRET detection reagents (0.167 μM streptavidine-XL665 [Cisbio Bioassays, Codolet, France] and 1.67 nM anti-phosho-Serine antibody [Merck Millipore, cat. #35-002] and 0.67 nM LANCE EU-W1024 labeled anti-mouse IgG antibody [Perkin-Elmer, product no. AD0077, as an alternative a Terbium-cryptate-labeled anti-mouse IgG antibody from Cisbio Bioassays can be used]) in an aqueous EDTA-solution (83.3 mM EDTA, 0.2% (w/v) bovine serum albumin in 100 mM HEPES pH 7.5).
The resulting mixture was incubated 1 h at 22° C. to allow the formation of complex between the phosphorylated biotinylated peptide and the detection reagents. Subsequently the amount of phosphorylated substrate was evaluated by measurement of the resonance energy transfer from the Eu-chelate to the streptavidine-XL. Therefore, the fluorescence emissions at 620 nm and 665 nm after excitation at 350 nm was measured in a TR-FRET reader, e.g. a Pherastar or Pherastar FS (both from BMG Labtechnologies, Offenburg, Germany) or a Viewlux (Perkin-Elmer). The ratio of the emissions at 665 nm and at 622 nm was taken as the measure for the amount of phosphorylated substrate.

[3] = target: Ba/F3-EGFR-D770_N771insSVD cells (Homo sapiens, UniProt P00533, DUP768-770, cells depend on it); test: Ba/F3 cell survival assay, EGFR D770_N771insSVD; format: cell-based; conditions: Cell Titer-Glo, 48 h, without IL-3; Table 4; read-out: BA/F3 (insSVD) IC50
Sequence of Ba/F3-EGFR-D770_N771insSVD cells (P00533 with tags, fused parts or gaps DUP768-770): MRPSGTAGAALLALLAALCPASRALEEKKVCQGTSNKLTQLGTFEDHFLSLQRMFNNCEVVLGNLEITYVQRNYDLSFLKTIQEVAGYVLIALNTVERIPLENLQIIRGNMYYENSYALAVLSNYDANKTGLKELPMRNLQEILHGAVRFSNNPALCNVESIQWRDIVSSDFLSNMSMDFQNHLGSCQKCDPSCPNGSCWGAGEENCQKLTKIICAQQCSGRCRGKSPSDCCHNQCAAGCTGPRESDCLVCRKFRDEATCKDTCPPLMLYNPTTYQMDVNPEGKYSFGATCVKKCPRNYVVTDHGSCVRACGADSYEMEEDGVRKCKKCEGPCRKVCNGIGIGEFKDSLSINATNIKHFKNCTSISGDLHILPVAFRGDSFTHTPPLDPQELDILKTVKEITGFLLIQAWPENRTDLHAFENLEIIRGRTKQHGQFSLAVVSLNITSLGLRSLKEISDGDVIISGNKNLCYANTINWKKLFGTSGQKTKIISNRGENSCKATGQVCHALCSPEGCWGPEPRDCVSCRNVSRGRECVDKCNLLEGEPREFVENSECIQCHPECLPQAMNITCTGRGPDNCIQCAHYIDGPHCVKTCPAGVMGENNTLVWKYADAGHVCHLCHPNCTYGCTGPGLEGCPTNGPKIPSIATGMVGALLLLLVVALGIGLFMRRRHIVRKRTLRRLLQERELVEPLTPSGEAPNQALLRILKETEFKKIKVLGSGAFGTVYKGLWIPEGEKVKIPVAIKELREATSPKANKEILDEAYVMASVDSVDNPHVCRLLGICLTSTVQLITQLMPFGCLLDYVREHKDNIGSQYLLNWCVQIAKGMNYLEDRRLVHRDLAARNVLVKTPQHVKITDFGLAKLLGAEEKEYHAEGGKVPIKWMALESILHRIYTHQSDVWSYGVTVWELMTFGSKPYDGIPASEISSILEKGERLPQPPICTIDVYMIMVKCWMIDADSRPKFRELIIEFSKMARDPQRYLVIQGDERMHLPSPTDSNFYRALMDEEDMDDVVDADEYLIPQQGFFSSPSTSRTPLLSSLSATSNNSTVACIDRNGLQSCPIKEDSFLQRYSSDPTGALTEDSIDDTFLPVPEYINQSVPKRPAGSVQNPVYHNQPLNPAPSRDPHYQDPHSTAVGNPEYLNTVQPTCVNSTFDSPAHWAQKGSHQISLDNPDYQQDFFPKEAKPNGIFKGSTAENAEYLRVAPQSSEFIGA

[4] = target: Ba/F3-EGFR-WT cells (Homo sapiens, UniProt P00533); test: Ba/F3 cell survival assay, wild type EGFR; format: cell-based; conditions: Cell Titer-Glo, 48 h, with 10 ng/mL EGF; Table 4; read-out: BA/F3 (wild type) IC50
Sequence of Ba/F3-EGFR-WT cells (P00533 whole entry, looked up, change not shown): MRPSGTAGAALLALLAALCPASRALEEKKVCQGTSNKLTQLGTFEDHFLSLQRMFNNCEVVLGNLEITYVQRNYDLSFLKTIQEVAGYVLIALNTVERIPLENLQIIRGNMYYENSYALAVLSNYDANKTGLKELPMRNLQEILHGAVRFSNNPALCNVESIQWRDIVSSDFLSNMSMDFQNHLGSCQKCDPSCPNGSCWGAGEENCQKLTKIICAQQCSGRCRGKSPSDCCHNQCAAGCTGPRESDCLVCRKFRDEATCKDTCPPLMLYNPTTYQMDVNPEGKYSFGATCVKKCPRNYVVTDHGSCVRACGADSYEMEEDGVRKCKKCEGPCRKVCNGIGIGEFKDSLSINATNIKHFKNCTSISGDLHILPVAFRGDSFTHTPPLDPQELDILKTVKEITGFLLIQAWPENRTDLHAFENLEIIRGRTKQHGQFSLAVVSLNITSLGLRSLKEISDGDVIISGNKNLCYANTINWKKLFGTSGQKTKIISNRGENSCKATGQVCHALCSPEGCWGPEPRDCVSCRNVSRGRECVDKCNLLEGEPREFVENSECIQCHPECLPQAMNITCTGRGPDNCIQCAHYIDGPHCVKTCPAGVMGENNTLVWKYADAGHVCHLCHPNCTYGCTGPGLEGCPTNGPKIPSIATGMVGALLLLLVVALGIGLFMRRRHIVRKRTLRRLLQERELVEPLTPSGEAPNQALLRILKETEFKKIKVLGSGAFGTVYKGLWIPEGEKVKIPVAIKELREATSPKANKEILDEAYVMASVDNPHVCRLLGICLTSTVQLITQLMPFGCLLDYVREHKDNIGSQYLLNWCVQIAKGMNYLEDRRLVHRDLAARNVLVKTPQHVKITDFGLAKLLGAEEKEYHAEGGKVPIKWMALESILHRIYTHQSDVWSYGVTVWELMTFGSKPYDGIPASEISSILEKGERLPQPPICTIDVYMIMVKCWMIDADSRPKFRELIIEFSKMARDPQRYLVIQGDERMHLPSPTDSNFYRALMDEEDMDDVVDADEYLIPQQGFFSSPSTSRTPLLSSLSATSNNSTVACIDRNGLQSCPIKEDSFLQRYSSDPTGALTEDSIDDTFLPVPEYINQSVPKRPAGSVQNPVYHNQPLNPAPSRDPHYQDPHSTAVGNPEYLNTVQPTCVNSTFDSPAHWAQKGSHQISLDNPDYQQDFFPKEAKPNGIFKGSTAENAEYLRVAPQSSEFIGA

[5] = Bub1 high ATP (2 mM) IC50, TR-FRET
[6] = read-out: Bub1 high ATP (2 mM) IC50, TR-FRET

Row | SMILES | mutEGFR (D770_N771insSVD) kinase assay IC50 [1] [µM] | IC50 [2, 5] [µM] | GI50 [3] [µM] | GI50 [4] [µM] | IC50 [2, 6] [µM]
1 | COc1c(Cl)cccc1Nc1c(-c2ccncc2OCC2COCCO2)[nH]c2c1C(=O)NCC2C (single isomer, unassigned) [Example 35, 3-(3-chloro-2-methoxy-anilino)-2-[3-(1,4-dioxan-2-ylmethoxy)-4-pyridyl]-7-methyl-1,5,6,7-tetrahydropyrrolo[3,2-c]pyridin-4-one] | 0.000272 | 12.4 | 0.0541 | 0.811 | –
2 | COc1c(Cl)cccc1Nc1c(-c2ccncc2OCC2COC(C)(C)CO2)[nH]c2c1C(=O)N[C@H](C)C2 (single isomer, unassigned) [Example 78] | 0.00026 | > 20 | 0.0207 | 0.488 | –
3 | COc1c(Cl)cccc1Nc1c(-c2ccncc2OCC2COCCO2)[nH]c2c1C(=O)N[C@@H]1CCC[C@H]21 (mixture of isomers) [Example 52, (5aR,8aS)-3-(3-chloro-2-methoxyanilino)-2-{3-[(1,4-dioxan-2-yl)methoxy]-4-pyridyl}-5,5a,6,7,8,8a-hexahydrocyclopenta[b]pyrrolo[2,3-d]pyridin-4(1)-one] | 0.000142 | 10 | 0.0389 | 0.407 | –
4 | COc1c(Cl)cccc1Nc1c(-c2ccncc2OCC(C)OC)[nH]c2c1C(=O)N[C@H](C)C2 (single isomer, unassigned) [Example 82] | 0.000143 | 2.71 | 0.0139 | 0.248 | –
5 | COc1c(Cl)cccc1Nc1c(-c2ccncc2OCCC2CCCCO2)[nH]c2c1C(=O)NC1(CCC1)C2 (stereo not shown) [Example 128, 3-(3-chloro-2-methoxy-anilino)-2-[3-(2-tetrahydropyran-2-ylethoxy)-4-pyridyl]spiro[5,7-dihydro-1H-pyrrolo[3,2-c]pyridine-6,1′-cyclobutane]-4-one] | 0.00106 | 0.726 | 0.0384 | 0.942 | –
6 | COc1c(Cl)cccc1Nc1c(-c2ccncc2OCC2COC(C)(C)CO2)[nH]c2c1C(=O)NCC2C (single isomer, unassigned) [Example 95, 3-(3-chloro-2-methoxy-anilino)-2-[3-[(5,5-dimethyl-1,4-dioxan-2-yl)methoxy]-4-pyridyl]-7-methyl-1,5,6,7-tetrahydropyrrolo[3,2-c]pyridin-4-one] | 0.000504 | – | 0.0149 | 0.415 | > 20
7 | Cc1c(Cl)cccc1Nc1c(-c2ccncc2OCC2OCCCC2(F)F)[nH]c2c1C(=O)NCC2C (stereo not shown) [Example 61, 3-(3-chloro-2-methyl-anilino)-2-[3-[(3,3-difluorotetrahydropyran-2-yl)methoxy]-4-pyridyl]-7-methyl-1,5,6,7-tetrahydropyrrolo[3,2-c]pyridin-4-one] | 0.00019 | 2.7 | 0.0205 | 0.534 | –
8 | COc1c(Cl)cccc1Nc1c(-c2ccncc2OC[C@@H]2CCCO2)[nH]c2c1C(=O)NCC2C (mixture of isomers) [Example 30, 3-(3-chloro-2-methoxy-anilino)-7-methyl-2-(3-{[(2S)-tetrahydrofuran-2-yl]methoxy}-4-pyridyl)-1,5,6,7-tetrahydropyrrolo[3,2-c]pyridin-4-one] | 0.000147 | 11.3 | 0.044 | 0.606 | –
9 | COc1c(Cl)cccc1Nc1c(-c2ccncc2OCC(C)(C)OC)[nH]c2c1C(=O)NCC2CCO (single isomer, unassigned) [Example 14, 3-(3-chloro-2-methoxyanilino)-7-(2-hydroxyethyl)-2-[3-(2-methoxy-2-methylpropoxy)pyridin-4-yl]-1,5,6,7-tetrahydro-4H-pyrrolo[3,2-c]pyridin-4-one] | 0.000139 | 5.39 | 0.021 | 0.262 | –
10 | Cc1c(Cl)cccc1Nc1c(-c2ccncc2OCC2COCCO2)[nH]c2c1C(=O)NCC2C (single isomer, unassigned) [Example 69, 3-(3-chloro-2-methyl-anilino)-2-[3-(1,4-dioxan-2-ylmethoxy)-4-pyridyl]-7-methyl-1,5,6,7-tetrahydropyrrolo[3,2-c]pyridin-4-one] | 0.000269 | 1.73 | 0.0724 | 2.18 | –
11 | COc1c(Cl)cccc1Nc1c(-c2ccncc2OC[C@@H]2CCCO2)[nH]c2c1C(=O)NCC2CC=C(F)F (single isomer, unassigned) [Example 101] | 0.000553 | > 20 | 0.0421 | 0.603 | –
12 | COCC(C)Oc1cnccc1-c1[nH]c2c(c1Nc1cccc(Cl)c1C)C(=O)N[C@H](C)C2 (stereo partly drawn) [Example 105, (6R)-3-(3-chloro-2-methylanilino)-2-{3-[(1-methoxypropan-2-yl)oxy]pyridin-4-yl}-6-methyl-1,5,6,7-tetrahydro-4H-pyrrolo[3,2-c]pyridin-4-one] | 0.000324 | 3.7 | 0.0447 | 0.884 | –
13 | COc1c(Cl)cccc1Nc1c(-c2ccncc2OCC2CCCCN2C)[nH]c2c1C(=O)N[C@H](C)C2 (single isomer, unassigned) [Example 85] | 0.000948 | – | 0.103 | 1.17 | > 20
14 | COc1c(Cl)cccc1Nc1c(-c2ccncc2OCC2COC(C)(C)CO2)[nH]c2c1C(=O)NC1(CCC1)C2 (single isomer, unassigned) [Example 130, 3′-(3-chloro-2-methoxyanilino)-2′-{3-[(5,5-dimethyl-1,4-dioxan-2-yl)methoxy]pyridin-4-yl}-1′,7′-dihydrospiro[cyclobutane-1,6′-pyrrolo[3,2-c]pyridin]-4′(5′H)-one] | 0.000256 | 0.768 | 0.00801 | 0.418 | –
15 | COc1c(Cl)cccc1Nc1c(-c2ccncc2OCC2CCCCO2)[nH]c2c1C(=O)NCC2C (single isomer, unassigned) [Example 45, 3-(3-chloro-2-methoxy-anilino)-7-methyl-2-[3-(tetrahydropyran-2-ylmethoxy)-4-pyridyl]-1,5,6,7-tetrahydropyrrolo[3,2-c]pyridin-4-one] | 0.000391 | > 20 | 0.0473 | 0.84 | –
16 | COc1c(Cl)cccc1Nc1c(-c2ccncc2OCC2COC(C)(C)CO2)[nH]c2c1C(=O)NC1(CCC1)C2 (stereo not shown) [Example 129, 3′-(3-chloro-2-methoxyanilino)-2′-{3-[(5,5-dimethyl-1,4-dioxan-2-yl)methoxy]pyridin-4-yl}-1′,7′-dihydrospiro[cyclobutane-1,6′-pyrrolo[3,2-c]pyridin]-4′(5′H)-one] | 0.000257 | 1.31 | 0.014 | 0.293 | –
17 | COc1c(Cl)cccc1Nc1c(-c2ccncc2OC[C@@H]2COCCN2C)[nH]c2c1C(=O)NCC2CCO (single isomer, unassigned) [Example 115] | 0.000456 | 13.2 | – | 5.42 | –
18 | COc1c(Cl)cccc1Nc1c(-c2ccncc2OC[C@@H]2CCCO2)[nH]c2c1C(=O)NCC2C (single isomer, unassigned) [Example 32] | – | 3.64 | 0.0527 | 0.737 | –
